Measured values published in patent US7141540B2, “Cyclodextrin grafted biocompatible amphilphilic polymer and methods of preparation and use thereof” (Genta Salus LLC, priority 2001, dated 2006).
One block for each molecule: values may come before it.

Legend:
[1] = system: human red blood cells; assay: Hemolysis on fresh human blood cells; format: cell-based; conditions: for Hemolysis (HC50, mM): human red blood cells, 30 minutes at 37° C., 0 to 50 mg/ml in PBS
Procedure: To further investigate the cytotoxicity of our polymers and their possible biodegradation products, their hemolysis effects were tested on fresh human blood cells in comparison with commercial CD monomers as describe below. The degree of hemolysis was reported as a percentage of the total efflux of hemoglobin in distilled water (Table 6)
1. Red blood cells were isolated from whole human blood by centrifugation at 1000 g for 10 minutes.
2. The plasma was removed and the red blood cells re-suspended in normal buffed saline (PBS, 0.154 M sodium chloride and 0.01 M phosphate, pH=7.4). The red blood cells were pelleted by centrifugation (1000 g for 10 minutes).
3. Step 2 was repeated twice to remove the heme released from damaged cells.
4. The final pellet was diluted with PBS to give a hematocrit of approximately 12 (or 5%) as determined by centrifugal sedimentation.
5.2 ml of polymer or cyclodextrin solutions of a series of concentrations from 0 to 50 mg/ml in PBS buffer) equilibrated at 37° C. in PBS buffer were equilibrated at 37° C. To this was added 100 ul of a red blood cell suspension followed by mixing of the sample with gentle inversion. The samples were incubated for 30 minutes at 37° C.
6. The intact cells and cellular debris were pelleted by centrifugation at 1000 g for 5 min. The supernatant was analyzed spectrophotometrically at 543 nm for released heme.

[2] = at 50% CD concentrations; cited from earlier work
[3] = Paclitaxel loading (solubilisation) by CD polymers or CD monomers; format: physicochemical
Procedure: Preparation of Paclitaxel Complexes with CD Polymers or CD Monomers
(A) Co-dissolving Method: This Method is Suitable for all Complexes with Water Soluble Polymers
The aqueous solution of polymer (or monomer controls) (usually about 100 mg/ml) was mixed with equal volume (usually 40 to 2000 ul) of the paclitaxel solution (Cpaclitael=0.1 to 8.0 mg/ml in methanol). The mixture was incubated at room temperature for about half an hour. Then the solvents were removed in a centrifuge concentrator at room temperature. The concentrated syrup or wax solid was reconstituted by adding water or PBS buffer to the original volume. The mixture was usually a clear or slightly cloudy solution after 30 minutes of reconstitution. The un-dissolved paclitaxel particles were removed either by ultra-filtration (0.2 um filter) or by centrifugation (20 minutes at 20,800 g and room temperature). The paclitaxel concentration in the clear supernatant was quantified by UV absorbance at […] by using the corresponding cyclodextrin polymer solution as the background calibration.
(B) Dialysis Method: This Method is Suitable for the Preparation of all Paclitaxel/polymer Complex Solutions:
The methanol solution of the polymer (usually […]) was mixed with equal volume (100 ul) of paclitaxel solution (1 to 3 mg/ml in methanol). The clear mixture was incubated at room temperature for about half an hour at room temperature, followed by dialysis (MWCO=12,000) overnight against 2 L water. The dialysis solution was usually a clear solution. Trace amounts of paclitaxel particles were removed either by ultra-filtration (0.2 um filter) or by centrifugation (20 minutes at 20,800 g and room temperature). The clear solution was stored at 4° C. or below.

[4] = Stability of Taxol/CD complexes in 50% fetal bovine serum; format: physicochemical; conditions: paclitaxel complex, 50% Serum, room temperature
Procedure: (§1) Stability of Taxol/CD Complexes in 50% Serum or After 10 Fold Dilution in PBS:
(§2) • (A) Stability in 50% fetal bovine serum: Taxol/PEG-L8-AcCD (2.0 mg/50 mg in 1.0 ml PBS buffer) or Taxol/DMCD (0.5 mg/50 mg in PBS buffer) complex solutions were prepared as describe in method A of example 7. Fifty micro liters of the complex solutions were diluted with equal volume of fetal bovine serum respectively. Both mixtures were centrifuged at […] at room temperature after incubation at room temperature for 2 hours, 21 hours, 49 hours and 144 hours, respectively. The Taxol concentration in each supernatant was quantified by measuring the UV absorption at 230 nm. • (B) Stability after 10 fold dilution with PBS: Taxol/PEG-L8-AcCD (2.0 mg/50 mg in 1.0 ml PBS buffer) or Taxol/DMCD (0.5 mg/50 mg in PBS buffer) complex solutions were prepared as describe in example 10. Fifty micro liters of the complex solutions were diluted with 450 micro liter of PBS buffer, respectively. Both mixtures were centrifuged at […] at room temperature after incubated room temperature for 2 hours, 21 hours, 49 hours and 144 hours. The Taxol concentration in each supernatant was quantified by measuring the UV absorption at 230 nm.

[5] = Stability of Taxol/CD complexes after 10 fold dilution with PBS; format: physicochemical; conditions: paclitaxel complex, 10X PBS, room temperature
Procedure: as §1, §2

[6] = Drug amount in 1.0 ml water or PBS in the presence of 50 mg of polymer or other CD derivatives

Molecule: OC[C@H]1O[C@@H]2O[C@H]3[C@H](O)[C@@H](O)[C@@H](O[C@H]4[C@H](O)[C@@H](O)[C@@H](O[C@H]5[C@H](O)[C@@H](O)[C@@H](O[C@H]6[C@H](O)[C@@H](O)[C@@H](O[C@H]7[C@H](O)[C@@H](O)[C@@H](O[C@H]8[C@H](O)[C@@H](O)[C@@H](O[C@H]1[C@H](O)[C@H]2O)O[C@@H]8CO)O[C@@H]7CO)O[C@@H]6CO)O[C@@H]5CO)O[C@@H]4CO)O[C@@H]3CO [βCD, β-cyclodextrin]
Hemolysis (HC50, mM) [1]: 4.0 mM

Molecule: Mono-6-(8-amino-3,6-dioxy-octylamino)-6-deoxy-β-cyclodextrin [CD-L8-NH2]
toxicity compared with natural β-cyclodextrin [1]: much less toxic
Hemolysis (HC50, mM) [1]: 25 mM

Paclitaxel loading (mg/50 mg polymer) [3, 6]: <0.05 mg/50 mg polymer
Molecule: hydoxylpropyl β-cyclodextrin [HP-CD]
paclitaxel dissolved [2]: about 0.7 mg/ml
Hemolysis (HC50, mM) [1]: 35 mM

Remaining paclitaxel % in diluted solution ([4]; 0 hour): 100%
Remaining paclitaxel % in diluted solution ([4]; 2 hour): 100%
Remaining paclitaxel % in diluted solution ([4]; 21 hour): 100%
Remaining paclitaxel % in diluted solution ([4]; 49 hour): 100%
Remaining paclitaxel % in diluted solution ([4]; 144 hour): 100%
Remaining paclitaxel % in diluted solution ([5]; 0 hour): 100%
Remaining paclitaxel % in diluted solution ([5]; 2 hour): 86%
Remaining paclitaxel % in diluted solution ([5]; 21 hour): 13%
Paclitaxel loading (mg/50 mg polymer) ([3]; at day 1, drug amount in 1.0 ml water or PBS in the presence of 50 mg of CD derivative): ˜0.2 (at day 1) mg/50 mg polymer
Molecule: methyl-β-cyclodextrin [DM-CD]
paclitaxel dissolved [2]: ~33 mg/mL
Hemolysis (HC50, mM) [1]: 1.0 mM

Paclitaxel loading (mg/50 mg polymer) [3, 6]: <0.05 mg/50 mg polymer
Molecule: sulfobutylether-β-cyclodextrin [(SBE)7-CD]
